Test results: US12699094B2, “Fluorescent biosensor for acetyl coenzyme A” (UNIVERSITY OF UTAH RESEARCH FOUNDATION, priority 2023, dated 2026)

How the values were obtained:
[1] = system: E. coli (Rosetta DE3 cells)
Protocol: Plate Reader Refeeding. All assays were done with the BioTek Synergy™ Plate Reader with injectors. All sensors and control proteins were expressed in Rosetta (DE3) cells. PanZ was used as a non-fluorescent control, cpGFP was used as a fluorescent control, and PANcACe was the experimental. Reads were done with excitation 405 nm and 485 nm and emission at 514 nm. Cultures were grown in LB with kanamycin overnight at 37° C. then used to induce new cultures. Cells were grown at 37° C. to an OD600 of 0.6 then induced with 0.5 mM IPTG and grown overnight at 18° C. Cultures were split into 2, 600 μL aliquots and spun at 4000 rpm for 5 minutes.
Glucose Starvation and Refeeding. The supernatant was discarded and pellets were resuspended in 600 μL either starvation buffer (100 mM NaPO4, 2 mM MgCl2, 15 mM (NH4)2SO4+0 mM glucose) or refed buffer (100 mM NaPO4, 2 mM MgCl2, 15 mM (NH4)2SO4+28 mM glucose). 85 μL was added to 3 wells of a 96 well plate for each sample. […] Plates were read for 10 minutes every 30 seconds with 10 seconds of shaking between reads. […] Plates were read for 60 minutes every 30 seconds with 10 seconds of shaking between reads.
2-Deoxyglucose Starvation and Refeeding. […] Plates were read for 10 minutes every 30 seconds with 10 seconds of shaking between reads. […] Plates were read for 60 minutes every 30 seconds with 10 seconds of shaking between reads.

[2] = target: E. coli PanZ (PanZ-CFP fusion protein), SEQ ID NO: 1 (Escherichia coli, UniProt P37613); test: Surface plasmon resonance binding to PanZ-CFP; details: SPR
Protocol: Surface Plasmon Resonance. Acetyl-CoA and CoA binding to PanZ-CFP were analyzed via SPR using a MASS-1 instrument (Bruker Daltonics, Billerica, MA). Independent experiments were performed using freshly prepared PanZ-CFP, Acetyl-CoA, and CoA stocks on two separate days (surfaces 1 & 2). HLC200 μM sensor surfaces (Xantec Bioanalytics, Düsseldorf, Germany) were activated with EDC/NHS, and then 250 nM PanZ-CFP ligand was captured on the sensor “Spot B” at 10 μL/minute at 2020 RU (surface 1) and 2360 RU (surface 2). The surface was then blocked with […]. The experimental running buffer was 50 mM Tris pH 7.5, 150 mM NaCl, 0.05% Tween-20 for surface 1 replicates and 200 mM Tris pH 7.5, 150 mM NaCl, 0.05% Tween-20 for surface 2 replicates. Experiments were performed at room temperature with a flowrate of 30 μL/minute. A three-fold dilution series (81-0.33 μM) with 1 minute association and 2 minutes dissociation was run in multiple replicates (at least two for each analyte on each surface). Data were double blanked by subtracting the blank in-line control surface (Spot A) and buffer reference injections. Kinetic binding data were globally fit to the Langmuir model for 1:1 binding for each replicate of concentration series using the Sierra Analyser software (version 3.4.1, Bruker Daltonics, Billerica, MA). […]

[3] = target: PanZ(R69)-GA-cpGFP-GA-(E70)PanZ (PancAce), SEQ ID NO: 5 (Escherichia coli, UniProt P37613, INS69[…]); test: Linker screen, fluorescence response to 1 mM acetyl-CoA; format: biochemical, E. coli
Protocol: Linker Length Screen. cpGFP (HTSD1.00) was inserted into 6× histidine tagged PanZ (HTSD1.10) after amino acid R69 with all 16 possible combinations of N- and C-terminal linkers with amino acid sequences GAS, GA, G, no linker using NEBuilder® HiFi DNA Assembly Master Mix (NEB) (HTSD8.00-8.15).
Position and Linker Screen. Assays were done in 96 well plates with 100 μL final well volumes. All sensors and control proteins were diluted to 10 μM in protein storage buffer (50 mM Tris pH 7.5, 150 mM NaCl, 10% glycerol). Acetyl-CoA was dissolved in water at a concentration of 10 mM. A 5× assay buffer was used ([…] pH 7.5, 750 mM NaCl). Wells were set up in triplicate with 60 μL water, 20 μL reaction buffer, and 10 μL sensor. Then either 10 μL of water or 10 μL of acetyl-CoA were added to 1 μM sensor before reading. […] Triplicates were averaged and percent difference between no acetyl-CoA and acetyl-CoA wells were calculated.

[4] = target: PancAce (PANcACe), PanZ(R69)-GA-cpGFP-GA-(E70)PanZ, SEQ ID NO: 5; E. coli PanZ with cpGFP insertion (Escherichia coli, UniProt P37613, INS69[…]); test: Fluorescence titration of PancAce with acetyl-CoA, CoA and propionyl-CoA; format: binding
Protocol: Acetyl-CoA and CoA Titration and Spectrum Scans. Assays were done in 384 well plates with […] final well volume. All sensors and control proteins were diluted to 6 μM in protein storage buffer. Acetyl-CoA and CoA were dissolved in water at a concentration of 60 μM then serial diluted to 30 μM, 15 μM, 6 μM, 3 μM, 0.6 μM, 0.06 μM, and 0.006 μM. Wells were set up in triplicate with 14 μL water, 6 μL assay buffer, and 5 μL sensor. 5 μL of an acetyl-CoA stock or water were added to 1 μM sensor before reading. For Titration curves, plates were read at excitation 485 nm and emission 514 nm. For excitation scans plates were excited from 400 nm to 500 nm at 1 nm increments and emissions were read at […]. For emission scans plates were excited at 485 nm, 427 nm, or 405 nm and emissions were read from 500 nm to 575 nm in 1 nm increments. Triplicates were averaged and plotted for scans and percent difference between no acetyl-CoA and acetyl-CoA wells were calculated for titrations.
Titrations of acetyl-CoA and CoA with PANcACe and cpGFP alone were performed (FIG. 9). […] Since the insertion site of cpGFP is very close to the acetyl-CoA binding site, this effect was not surprising. […] Further, the selectivity of PANcACe for short-chain acyl-CoAs was tested (FIG. 11). […] A propionyl-CoA titration confirmed this apparent affinity difference (FIG. 12). Since saturation was not achieved up to 10 mM propionyl-CoA, it was assumed that the same maximal sensor response would be achieved for propionyl-CoA as for acetyl-CoA.

[5] = target: PancAce (PANcACe), PanZ(R69)-GA-cpGFP-GA-(E70)PanZ, SEQ ID NO: 5 (Escherichia coli, UniProt P37613, INS69[…]); test: Acyl-CoA screen, fluorescence response to 1 mM acyl-CoA; format: biochemical, E. coli; details: FIG. 11, n=3
Protocol: Acyl-CoA Screen. Assays were done in 384 well plates with 30 μL final volume. All sensors and control proteins were diluted to 6 μM in protein storage buffer. CoA, acetyl-CoA, propionyl-CoA, butyryl-CoA, malonyl-CoA, and succinyl-CoA were dissolved in water at a concentration of 6 mM. Wells were set up in triplicate with 14 μL water, 6 μL assay buffer, and 5 μL sensor. 5 μL of an acyl-CoA or water were added to 1 μM sensor before reading. Plates were read at excitation 485 nm and emission 514 nm. Triplicates were averaged and percent difference between acyl-CoAs and water were calculated.

## CC(=O)O [acetate]
[1]; 280 μM acetate, pre-starved PancAce-expressing cells
  duration of increase in PancAce signal upon feeding of starved cells: about 30 minutes

## CC(=O)SCCNC(=O)CCNC(=O)[C@H](O)C(C)(C)COP(=O)(O)OP(=O)(O)OC[C@H]1O[C@@H](n2cnc3c(N)ncnc32)[C@H](O)[C@@H]1OP(=O)(O)O [acetyl-CoA, acetyl coenzyme A]
[2]
  fold higher affinity for acetyl-CoA versus CoA: 7 fold
[2]; 1:1 Langmuir fit, average ± standard error, room temperature, pH 7.5
  Kd: 1700 ± 200 nM
[3]; 1 mM acetyl-CoA, N-GA/C-GA linkers, λex=485, λem=514 nm
  fold-change in fluorescence emission ((F1−F0)/F0): about 0.6 fold
[3]; acetyl-CoA, FIG. 6
  response of GA/GA linker sensor relative to original AS/AS linker: about 2.5 fold
[4]; FIG. 9
  lower end of detectable acetyl-CoA concentration range: about 10 UM
  upper end of detectable acetyl-CoA concentration range: about 2 mM
[4]; FIG. 12, λex=485, λem=514 nm, n=3-5
  fold higher affinity for acetyl-CoA compared to propionyl-CoA: approximately 2.5 fold
[4]; fluorescence Kd,app vs SPR Kd
  fold lower affinity of PANcACe for acetyl-CoA compared to PanZ: about 150 fold
[4]; λex=485, λem=514 nm
  maximum fluorescence response at saturating acetyl-CoA: ~2 fold

## O=CC[C@@H](O)[C@H](O)[C@H](O)CO [2-DG, 2-deoxyglucose]
[1]; PancAce-expressing cells deprived of glucose 3 hours with 28 mM 2-DG, refed 28 mM glucose, monitored 1 hour
  recovery of acetyl-CoA levels (sensor response) upon refeeding: lower recovery of acetyl-CoA levels upon refeeding

## CC(C)(COP(=O)(O)OP(=O)(O)OC[C@H]1O[C@@H](n2cnc3c(N)ncnc32)[C@H](O)[C@@H]1OP(=O)(O)O)[C@@H](O)C(=O)NCCC(=O)NCCS [CoA, coenzyme A]
[4]; FIG. 9, acetyl-CoA or CoA titration
  sensor response: the sensor responds only to acetyl-CoA and not CoA
[4]; interpolation, saturation not achieved for CoA
  CoA concentration required to elicit the same sensor response as 100 μM acetyl-CoA: 10 mM

## CCC(=O)SCCNC(=O)CCNC(=O)[C@H](O)C(C)(C)COP(=O)(O)OP(=O)(O)OC[C@H]1O[C@@H](n2cnc3c(N)ncnc32)[C@H](O)[C@@H]1OP(=O)(O)O [propionyl-CoA]
[5]
  sensor fluorescence response: some response
[4]; from fitted Kd values
  fold lower affinity for propionyl-CoA compared to acetyl-CoA: 2.4 fold
[4]; saturation not achieved up to 10 mM, fit assumes same maximal sensor response as for acetyl-CoA
  Kd (estimated): 626000 ± 75000 nM
